# Reference: patent EP1171107B1, “USE OF A PHARMACEUTICAL COMPOSITION IN THE MANUFACTURE OF A MEDICAMENT FOR THE TREATMENT OF PATHOLOGICAL CONDITIONS OF THE EYE CAUSED BY BACTERIA, VIRUSES, FUNGI, YEASTS AND PROTOZOA” (Dr. GERHARD MANN chem.-pharm. Fabrik GmbH, priority 1999, dated 2000)
# Legend:
# Type in all cases: cell-based
# E.coli [1] = assay: Quantitative germ count (re-isolation, surface method) after inoculating the test preparation; settings: Ausgangskeimzahl 2,7 x 10^5 KBE/ml
# H.influenzae = assay: as above; settings: Ausgangskeimzahl 2,8 x 10^5 KBE/ml
# Summary of the method: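 Surviving germs were counted by the surface method: an aliquot was spiral-plated on Kochblut-Agar and incubated at 33±2°C for max. 4 Tage, giving re-isolated counts in KBE/ml with a detection limit of 100 KBE/ml. Initial germ counts were also set by spiral-plater surface plating. The H. influenzae strain was pretested biochemically for identity and purity.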
# S.aureus [2] = assay: as above; settings: Ausgangskeimzahl 2,6 x 10^5 KBE/ml
# Summary of the method: (§1)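 Test preparations were contaminated with ca. 10^5 CFU/ml of each strain, then sampled at 2, 6, 8, 24, 32, 48 and 72 h. Cells were centrifuged 10 min at 3000 rpm, washed in NaCl-peptone buffer, resuspended and spiral-plated on Caso agar at 33±2°C for max. 4 days. Detection limit was 100 CFU/ml.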
# Sc. pneumoniae [3] = assay: as above; settings: Ausgangskeimzahl 3,7 x 10^5 KBE/ml
# Summary of the method: as §1
# P.aeruginosa [4] = assay: as above; settings: Ausgangskeimzahl 2,7 x 10^5 KBE/ml
# Summary of the method: as §1
# S.epidermidis [5] = assay: as above; settings: Ausgangskeimzahl 2,1 x 10^5 KBE/ml
# Summary of the method: as §1
# E.coli [6] = assay: Qualitative examination: enrichment of the inoculated test preparation in broth
# Summary of the method: (§2)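 5 ml substance + ca. 10^5 CFU/ml; contact 2, 6, 8, 24, 32, 48, 72 h; spin 10 min 3000 rpm, resuspend in NaCl-peptone buffer ×2; 2 ml → 20 ml Caso broth (H. influenzae: Fildes), 33±2°C, ≤4 d; no growth = inoculum eliminated.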
# S.aureus [7] = assay: as above
# Summary of the method: as §2
# S.epidermidis [8] = assay: as above
# Summary of the method: as §2
# Sc. pneumoniae [9] = assay: as above
# Summary of the method: as §2
# P.aeruginosa [10] = assay: as above
# Summary of the method: as §2
substance,measurement,setting,value
"Benzalkoniumchlorid [Benzalkoniumchlorid 0,006 Gew.-%]",Ergebnis der Reisolierung (in KBE/ml),E.coli [1]; 2 h after inoculation,<100 KBE/ml
same,Ergebnis der Reisolierung (in KBE/ml),E.coli [1]; 4 h after inoculation,<100 KBE/ml
same,Ergebnis der Reisolierung (in KBE/ml),E.coli [1]; 6 h after inoculation,<100 KBE/ml
same,Ergebnis der Reisolierung (in KBE/ml),E.coli [1]; 8 h after inoculation,<100 KBE/ml
same,Ergebnis der Reisolierung (in KBE/ml),E.coli [1]; 24 h after inoculation,<100 KBE/ml
same,Ergebnis der Reisolierung (in KBE/ml),E.coli [1]; 32 h after inoculation,<100 KBE/ml
same,Ergebnis der Reisolierung (in KBE/ml),E.coli [1]; 48 h after inoculation,<100 KBE/ml
same,Ergebnis der Reisolierung (in KBE/ml),E.coli [1]; 72 h after inoculation,<100 KBE/ml
same,Ergebnis der Reisolierung (in KBE/ml),H.influenzae; 2 h after inoculation,<100 KBE/ml
same,Ergebnis der Reisolierung (in KBE/ml),H.influenzae; 4 h after inoculation,<100 KBE/ml
same,Ergebnis der Reisolierung (in KBE/ml),H.influenzae; 6 h after inoculation,<100 KBE/ml
same,Ergebnis der Reisolierung (in KBE/ml),H.influenzae; 8 h after inoculation,<100 KBE/ml
same,Ergebnis der Reisolierung (in KBE/ml),H.influenzae; 24 h after inoculation,<100 KBE/ml
same,Ergebnis der Reisolierung (in KBE/ml),H.influenzae; 32 h after inoculation,<100 KBE/ml
same,Ergebnis der Reisolierung (in KBE/ml),H.influenzae; 48 h after inoculation,<100 KBE/ml
same,Ergebnis der Reisolierung (in KBE/ml),H.influenzae; 72 h after inoculation,<100 KBE/ml
same,Ergebnis der Reisolierung (in KBE/ml),S.aureus [2]; 2 h after inoculation,<100 KBE/ml
same,Ergebnis der Reisolierung (in KBE/ml),S.aureus [2]; 4 h after inoculation,<100 KBE/ml
same,Ergebnis der Reisolierung (in KBE/ml),S.aureus [2]; 6 h after inoculation,<100 KBE/ml
same,Ergebnis der Reisolierung (in KBE/ml),S.aureus [2]; 8 h after inoculation,<100 KBE/ml
same,Ergebnis der Reisolierung (in KBE/ml),S.aureus [2]; 24 h after inoculation,<100 KBE/ml
same,Ergebnis der Reisolierung (in KBE/ml),S.aureus [2]; 32 h after inoculation,<100 KBE/ml
same,Ergebnis der Reisolierung (in KBE/ml),S.aureus [2]; 48 h after inoculation,<100 KBE/ml
same,Ergebnis der Reisolierung (in KBE/ml),S.aureus [2]; 72 h after inoculation,<100 KBE/ml
same,Ergebnis der Reisolierung (in KBE/ml),Sc. pneumoniae [3]; 2 h after inoculation,<100 KBE/ml
same,Ergebnis der Reisolierung (in KBE/ml),Sc. pneumoniae [3]; 4 h after inoculation,<100 KBE/ml
same,Ergebnis der Reisolierung (in KBE/ml),Sc. pneumoniae [3]; 6 h after inoculation,<100 KBE/ml
same,Ergebnis der Reisolierung (in KBE/ml),Sc. pneumoniae [3]; 8 h after inoculation,<100 KBE/ml
same,Ergebnis der Reisolierung (in KBE/ml),Sc. pneumoniae [3]; 24 h after inoculation,<100 KBE/ml
same,Ergebnis der Reisolierung (in KBE/ml),Sc. pneumoniae [3]; 32 h after inoculation,<100 KBE/ml
same,Ergebnis der Reisolierung (in KBE/ml),Sc. pneumoniae [3]; 48 h after inoculation,<100 KBE/ml
same,Ergebnis der Reisolierung (in KBE/ml),Sc. pneumoniae [3]; 72 h after inoculation,<100 KBE/ml
same,Ergebnis der Reisolierung (in KBE/ml),P.aeruginosa [4]; 2 h after inoculation,<100 KBE/ml
same,Ergebnis der Reisolierung (in KBE/ml),P.aeruginosa [4]; 4 h after inoculation,<100 KBE/ml
same,Ergebnis der Reisolierung (in KBE/ml),P.aeruginosa [4]; 6 h after inoculation,<100 KBE/ml
same,Ergebnis der Reisolierung (in KBE/ml),P.aeruginosa [4]; 8 h after inoculation,<100 KBE/ml
same,Ergebnis der Reisolierung (in KBE/ml),P.aeruginosa [4]; 24 h after inoculation,<100 KBE/ml
same,Ergebnis der Reisolierung (in KBE/ml),P.aeruginosa [4]; 32 h after inoculation,<100 KBE/ml
same,Ergebnis der Reisolierung (in KBE/ml),P.aeruginosa [4]; 48 h after inoculation,<100 KBE/ml
same,Ergebnis der Reisolierung (in KBE/ml),P.aeruginosa [4]; 72 h after inoculation,<100 KBE/ml
same,Ergebnis der Reisolierung (in KBE/ml),S.epidermidis [5]; 2 h after inoculation,<100 KBE/ml
same,Ergebnis der Reisolierung (in KBE/ml),S.epidermidis [5]; 4 h after inoculation,<100 KBE/ml
same,Ergebnis der Reisolierung (in KBE/ml),S.epidermidis [5]; 6 h after inoculation,<100 KBE/ml
same,Ergebnis der Reisolierung (in KBE/ml),S.epidermidis [5]; 8 h after inoculation,<100 KBE/ml
same,Ergebnis der Reisolierung (in KBE/ml),S.epidermidis [5]; 24 h after inoculation,<100 KBE/ml
same,Ergebnis der Reisolierung (in KBE/ml),S.epidermidis [5]; 32 h after inoculation,<100 KBE/ml
same,Ergebnis der Reisolierung (in KBE/ml),S.epidermidis [5]; 48 h after inoculation,<100 KBE/ml
same,Ergebnis der Reisolierung (in KBE/ml),S.epidermidis [5]; 72 h after inoculation,<100 KBE/ml
same,Ergebnis der Reisolierung qualitiativ (+/-) nach Anreicherung,E.coli [6]; 2 h after inoculation,-
same,Ergebnis der Reisolierung qualitiativ (+/-) nach Anreicherung,E.coli [6]; 4 h after inoculation,-
same,Ergebnis der Reisolierung qualitiativ (+/-) nach Anreicherung,E.coli [6]; 6 h after inoculation,-
same,Ergebnis der Reisolierung qualitiativ (+/-) nach Anreicherung,E.coli [6]; 8 h after inoculation,-
same,Ergebnis der Reisolierung qualitiativ (+/-) nach Anreicherung,E.coli [6]; 24 h after inoculation,-
same,Ergebnis der Reisolierung qualitiativ (+/-) nach Anreicherung,E.coli [6]; 32 h after inoculation,-
same,Ergebnis der Reisolierung qualitiativ (+/-) nach Anreicherung,E.coli [6]; 48 h after inoculation,-
same,Ergebnis der Reisolierung qualitiativ (+/-) nach Anreicherung,E.coli [6]; 72 h after inoculation,-
same,Ergebnis der Reisolierung qualitiativ (+/-) nach Anreicherung,S.aureus [7]; 2 h after inoculation,-
same,Ergebnis der Reisolierung qualitiativ (+/-) nach Anreicherung,S.aureus [7]; 4 h after inoculation,-
same,Ergebnis der Reisolierung qualitiativ (+/-) nach Anreicherung,S.aureus [7]; 6 h after inoculation,-
same,Ergebnis der Reisolierung qualitiativ (+/-) nach Anreicherung,S.aureus [7]; 8 h after inoculation,-
same,Ergebnis der Reisolierung qualitiativ (+/-) nach Anreicherung,S.aureus [7]; 24 h after inoculation,-
same,Ergebnis der Reisolierung qualitiativ (+/-) nach Anreicherung,S.aureus [7]; 32 h after inoculation,-
same,Ergebnis der Reisolierung qualitiativ (+/-) nach Anreicherung,S.aureus [7]; 48 h after inoculation,-
same,Ergebnis der Reisolierung qualitiativ (+/-) nach Anreicherung,S.aureus [7]; 72 h after inoculation,-
same,Ergebnis der Reisolierung qualitiativ (+/-) nach Anreicherung,S.epidermidis [8]; 2 h after inoculation,-
same,Ergebnis der Reisolierung qualitiativ (+/-) nach Anreicherung,S.epidermidis [8]; 4 h after inoculation,-
same,Ergebnis der Reisolierung qualitiativ (+/-) nach Anreicherung,S.epidermidis [8]; 6 h after inoculation,-
same,Ergebnis der Reisolierung qualitiativ (+/-) nach Anreicherung,S.epidermidis [8]; 8 h after inoculation,-
same,Ergebnis der Reisolierung qualitiativ (+/-) nach Anreicherung,S.epidermidis [8]; 24 h after inoculation,-
same,Ergebnis der Reisolierung qualitiativ (+/-) nach Anreicherung,S.epidermidis [8]; 32 h after inoculation,-
same,Ergebnis der Reisolierung qualitiativ (+/-) nach Anreicherung,S.epidermidis [8]; 48 h after inoculation,-
same,Ergebnis der Reisolierung qualitiativ (+/-) nach Anreicherung,S.epidermidis [8]; 72 h after inoculation,-
same,Ergebnis der Reisolierung qualitiativ (+/-) nach Anreicherung,Sc. pneumoniae [9]; 2 h after inoculation,-
same,Ergebnis der Reisolierung qualitiativ (+/-) nach Anreicherung,Sc. pneumoniae [9]; 4 h after inoculation,-
same,Ergebnis der Reisolierung qualitiativ (+/-) nach Anreicherung,Sc. pneumoniae [9]; 6 h after inoculation,-
same,Ergebnis der Reisolierung qualitiativ (+/-) nach Anreicherung,Sc. pneumoniae [9]; 8 h after inoculation,-
same,Ergebnis der Reisolierung qualitiativ (+/-) nach Anreicherung,Sc. pneumoniae [9]; 24 h after inoculation,-
same,Ergebnis der Reisolierung qualitiativ (+/-) nach Anreicherung,Sc. pneumoniae [9]; 32 h after inoculation,-
same,Ergebnis der Reisolierung qualitiativ (+/-) nach Anreicherung,Sc. pneumoniae [9]; 48 h after inoculation,-
same,Ergebnis der Reisolierung qualitiativ (+/-) nach Anreicherung,Sc. pneumoniae [9]; 72 h after inoculation,-
same,Ergebnis der Reisolierung qualitiativ (+/-) nach Anreicherung,P.aeruginosa [10]; 2 h after inoculation,-
same,Ergebnis der Reisolierung qualitiativ (+/-) nach Anreicherung,P.aeruginosa [10]; 4 h after inoculation,-
same,Ergebnis der Reisolierung qualitiativ (+/-) nach Anreicherung,P.aeruginosa [10]; 6 h after inoculation,-
same,Ergebnis der Reisolierung qualitiativ (+/-) nach Anreicherung,P.aeruginosa [10]; 8 h after inoculation,-
same,Ergebnis der Reisolierung qualitiativ (+/-) nach Anreicherung,P.aeruginosa [10]; 24 h after inoculation,-
same,Ergebnis der Reisolierung qualitiativ (+/-) nach Anreicherung,P.aeruginosa [10]; 32 h after inoculation,-
same,Ergebnis der Reisolierung qualitiativ (+/-) nach Anreicherung,P.aeruginosa [10]; 48 h after inoculation,-
same,Ergebnis der Reisolierung qualitiativ (+/-) nach Anreicherung,P.aeruginosa [10]; 72 h after inoculation,-
